Cc1c(N)cccc1C(=O)O
solubility (mole fraction)
Details	288.15 K	293.15 K	298.15 K	303.15 K	308.15 K	313.15 K	318.15 K	323.15 K	328.15 K
in acetonitrile	0.0004	0.000499	0.000728	0.000986	0.00126	0.0017	0.00202	0.00251	0.00307
in ethanol	0.00373	0.00422	0.00496	0.00628	0.00749	0.00891	0.0105	0.0124	0.0151
in ethyl acetate	0.000961	0.00107	0.00135	0.00173	0.0022	0.00283	0.0035	0.00436	0.00524
in isobutanol	0.00112	0.00132	0.00191	0.00254	0.00322	0.00427	0.00534	0.0069	0.00839
in isopropanol	0.00196	0.00228	0.00298	0.00386	0.00494	0.00629	0.0079	0.00991	0.0123
in methanol	0.00532	0.0059	0.00682	0.00844	0.00979	0.0115	0.0136	0.0159	0.0178
in methyl acetate	0.000975	0.00127	0.00179	0.0024	0.00292	0.00347	0.00428	0.00514	0.00571
in n-butanol	0.00236	0.00269	0.00333	0.00442	0.00535	0.00659	0.0079	0.00962	0.0115
in n-propanol	0.00245	0.00277	0.00341	0.00444	0.00542	0.00672	0.00824	0.0101	0.0123
in n-propyl acetate	0.000796	0.000942	0.00109	0.00142	0.00176	0.00225	0.00286	0.00368	0.0047
in sec-butanol	0.00178	0.00209	0.00285	0.00388	0.00513	0.00675	0.00858	0.0111	0.0138
in water	0.000581	0.000588	0.00062	0.000669	0.000718	0.00079	0.000887	0.00098	0.00105

Source: BigSolDB 2.1
